Experimental data taken from patent US20090048117A1, “MODULATION OF IMMUNE SYSTEM FUNCTION BY MODULATION OF POLYPEPTIDE ARGININE METHYLTRANSFERASES” (President and Fellows of Harvard College, priority 2003, published 2009).

What was measured:
NFAT4 = experiment: Nuclear translocation of NFAT4 by immunofluorescence in HepG2 cells; format: cell-based; design: key: Subcellular localization of NFAT4 in the cytoplasm is indicated by a (−); nuclear translocation of NFAT4 is indicated by (^+); conditions: 1 μM ionomycin
Method: The effect of NIP45 on the nuclear translocation of NFAT4 also was investigated. HepG2 cells were transfected with either NFAT4 or NFAT4 plus NIP45 and stimulated the following day with 1 μM ionomycin for 0, 2, 4, 8 or 15 minutes. For one sample, the cells were stimulated for 15 minutes with ionomycin and then washed with fresh media and allowed to rest for an additional 15 minutes (indicated as “15 min.^+15 min. rest” in Table 1). This analysis is designed to examine the function of NIP45 as a nuclear retention factor. […] All samples were then fixed and analyzed by immunofluorescence for translocation of NFAT4 as described above. Subcellular localization of NFAT4 in the cytoplasm is indicated by a (−) and nuclear translocation of NFAT4 is indicated by (^+).

IL-4 promoter = experiment: IL-4 luciferase reporter assay in Jurkat cells; format: cell-based, human; conditions: PRMT1 with NFATc2 and c-Maf, PMA/ionomycin stimulation
Method: FIGS. 11A-11C depict the effects of MTA on T helper cytokine production. (A) T helper cells were isolated from the lymph nodes of DO11.10 TCR transgenic mice and grown under Th1 or Th2 conditions for 7 days. Th1 and Th2 cells were treated with PMA/ionomycin for 3 hrs or pretreated with 1 mM MTA for 60 min prior to PMA/ionomycin stimulation. RNA was isolated with analyzed by RNase protection analysis for transcript level of indicated cytokines. L32 and GAPDH included in the multitemplate probe set served as an internal control. (B) Cells were grown as in (A) either pretreated with 1 mM MTA or left untreated and intracellular cytokine analysis was performed after stimulation with PMA/ionomycin for 2 hrs and an additional 2 hrs with […] monensin. (C) MTA inhibits IL-4 promoter activity. Jurkat cells were transfected with IL-4 reporter vector (2.5 μg) and expression vectors for c-Maf (2.5 μg), NFATc2 (2.5 μg), and PRMT1 (10 μg) along with a TK-renilla luciferase vector (5 ng) as an internal control. Transfectants were left unstimulated or pretreated with 1 mM MTA before a 6 hr PMA/ionomycin stimulation. Luciferase values were calculated relative to TK renilla luciferase internal controls and are expressed relative to unstimulated reporter activity. Similar results were obtained in at least three independent experiments. […]

NFAT reporter element = experiment: NFAT consensus site luciferase reporter assay in Jurkat cells; format: cell-based, human; conditions: PRMT1 with NFATc2
Method: FIGS. 13A-13D depict the regulation of the IFNγ and IL-4 promoters by PRMT1. (A) Jurkat cells were transfected with the 9.2 kb IFNγ luciferase reporter 5 μg) and expression vectors for T-bet (5 μg) and PRMT1 (10 μg). Cells were unstimulated or stimulated with PMA/ionomycin for 6 hrs prior to luciferase assays. (B) Jurkat cells were transfected with the IL-4 luciferase reporter (2.5 μg) and expression vectors for NFATc2 (2.5 μg), c-Maf (2.5 μg), and PRMT1 (10 μg). Cells were treated as in (A). (C) Jurkat cells were transfected with the IL-4 luciferase reporter (2.5 μg) and expression vectors for JunB (2.5 μg), c-Maf (2.5 μg), and PRMT1 (10 μg). Cells were treated as in (A). (D) Jurkat cells were transfected with an luciferase reporter driven by NFAT consensus sites and expression vectors for NFATc2 (2.5 μg) and PRMT1 (10 μg). Cells were treated as in (A). (Luciferase units were normalized to TK-renilla luciferase activity. Results are representative to at least three independent experiments.)
The IL-4 promoter contains several composite NFAT/AP-1 sites. Whether PRMT1 coactivation is mediated through NFAT or AP-1 factors was investigated as both NFAT and JunB are involved in the regulation of IL-4 promoter activity (Li, B., et al. (1999) EMBO J 18:420-432). […]

With C[C@H](CCC(=O)O)C[C@H](C)C[C@H](C)C(=O)/C=C(\O)[C@H](C)C[C@H](C)C/C=C/[C@@H](C)[C@@H](O)[C@@H](C)[C@@H](O)C[C@@H]1CC[C@@](C)([C@H]2CC[C@@](C)([C@@H](C)O)O2)O1 [Ionomycin, ionomycin] the “Nuclear Translocation of NFAT4” value (NFAT4; 0 min.) was “−”, the “Nuclear Translocation of NFAT4” value (NFAT4; 8 min.) was “+” and the “Nuclear Translocation of NFAT4” value (NFAT4; 15 min.) was “+”. For the same molecule, the “Nuclear Translocation of NFAT4” value (NFAT4; 15 min. + 15 min. rest in fresh media) was “−”.

In the case of “PRMT1: type I protein arginine methyltransferase (SEQ ID NO:10), expressed from a transfected expression vector”, the “IL-4 promoter activity over NFATc2/c-Maf only” value (IL-4 promoter) is reported as 5 fold and the “augmentation of NFATc2 transactivation of an NFAT reporter element” value (NFAT reporter element) is reported as “approximately 10 fold”.
